Reference: patent publication US6534516B1, “Androgen receptor modulator compounds and methods” (Ligand Pharmaceuticals Incorporated, priority 1996, dated 2003)
pIC50: −log10 of the molar value.

How the values were obtained:
MR = biological target: T1, MR (Homo sapiens, UniProt P08235); assay: Co-transfection assay, cross-reactivity on MR; format: cell-based
T1 construct: expressed in transfected cells
T1 sequence (P08235 1-984): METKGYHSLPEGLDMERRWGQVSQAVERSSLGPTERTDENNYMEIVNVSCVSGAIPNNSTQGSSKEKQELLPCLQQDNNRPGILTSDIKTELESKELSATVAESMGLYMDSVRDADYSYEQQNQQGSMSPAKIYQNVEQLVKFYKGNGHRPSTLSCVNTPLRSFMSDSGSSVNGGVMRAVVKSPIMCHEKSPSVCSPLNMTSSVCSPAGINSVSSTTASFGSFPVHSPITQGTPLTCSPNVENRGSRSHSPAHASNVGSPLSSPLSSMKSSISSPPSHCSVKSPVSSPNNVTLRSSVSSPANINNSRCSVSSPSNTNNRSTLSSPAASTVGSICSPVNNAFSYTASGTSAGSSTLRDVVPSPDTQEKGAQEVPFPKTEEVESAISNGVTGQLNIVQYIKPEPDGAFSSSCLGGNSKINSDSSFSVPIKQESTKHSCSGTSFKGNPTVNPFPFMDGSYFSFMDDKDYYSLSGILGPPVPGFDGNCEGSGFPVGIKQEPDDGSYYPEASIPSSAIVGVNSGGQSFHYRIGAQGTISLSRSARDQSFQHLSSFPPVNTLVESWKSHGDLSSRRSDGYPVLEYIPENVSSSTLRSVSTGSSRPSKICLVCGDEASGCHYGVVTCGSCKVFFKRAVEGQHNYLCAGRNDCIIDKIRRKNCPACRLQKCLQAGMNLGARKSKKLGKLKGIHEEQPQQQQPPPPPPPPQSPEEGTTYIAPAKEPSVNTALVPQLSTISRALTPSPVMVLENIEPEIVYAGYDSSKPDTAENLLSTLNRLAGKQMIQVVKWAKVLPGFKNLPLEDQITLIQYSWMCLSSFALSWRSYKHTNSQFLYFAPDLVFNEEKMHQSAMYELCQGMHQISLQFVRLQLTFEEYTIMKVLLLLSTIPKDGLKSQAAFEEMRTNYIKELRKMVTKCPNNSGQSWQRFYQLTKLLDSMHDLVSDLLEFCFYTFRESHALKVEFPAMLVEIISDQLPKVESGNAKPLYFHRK

PR = biological target: T2, PR (Homo sapiens, UniProt P06401); assay: cell-based
T2 sequence (P06401 1-933): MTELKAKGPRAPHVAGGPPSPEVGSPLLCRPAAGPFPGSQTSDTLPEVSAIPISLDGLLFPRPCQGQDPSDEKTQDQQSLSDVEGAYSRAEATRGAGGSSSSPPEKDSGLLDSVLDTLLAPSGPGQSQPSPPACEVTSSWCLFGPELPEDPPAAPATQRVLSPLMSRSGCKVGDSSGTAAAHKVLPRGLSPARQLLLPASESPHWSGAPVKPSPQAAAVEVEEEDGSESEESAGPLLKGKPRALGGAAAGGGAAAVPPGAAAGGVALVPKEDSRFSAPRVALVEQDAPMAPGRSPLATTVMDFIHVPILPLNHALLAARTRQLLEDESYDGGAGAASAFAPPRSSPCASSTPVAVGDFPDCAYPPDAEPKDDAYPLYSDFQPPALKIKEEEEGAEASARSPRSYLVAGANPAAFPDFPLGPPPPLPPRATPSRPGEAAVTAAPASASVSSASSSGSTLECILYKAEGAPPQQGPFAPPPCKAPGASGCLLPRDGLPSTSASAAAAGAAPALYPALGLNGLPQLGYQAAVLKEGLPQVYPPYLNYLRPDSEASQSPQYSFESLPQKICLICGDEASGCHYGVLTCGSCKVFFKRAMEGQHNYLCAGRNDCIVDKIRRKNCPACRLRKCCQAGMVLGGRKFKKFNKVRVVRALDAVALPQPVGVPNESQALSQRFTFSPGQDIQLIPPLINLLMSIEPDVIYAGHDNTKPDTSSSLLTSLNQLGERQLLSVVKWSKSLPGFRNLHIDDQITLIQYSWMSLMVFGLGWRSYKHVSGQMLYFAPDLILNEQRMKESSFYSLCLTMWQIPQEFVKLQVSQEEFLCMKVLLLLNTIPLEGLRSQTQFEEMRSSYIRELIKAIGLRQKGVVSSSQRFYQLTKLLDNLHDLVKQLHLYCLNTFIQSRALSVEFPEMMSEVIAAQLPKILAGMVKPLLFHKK

With `Cn1c(=O)cc(C(F)(F)F)c2cc3c(cc21)N1CCCC1(C)CC3` (racemic) [Compound 103, (R/S)-6,7,7a,11-Tetrahydro-1,7a-dimethyl-4-trifluoromethyl-2-pyridono[5,6-g]pyrrolidino[1,2-a]quinoline] the pIC50 (MR) was 5.80 and the pIC50 (PR) was 5.23.
